This note sets out measurements from the supplement of paper PMC10307832.

One assay has as its system EKVX. Kind of assay: relative viability (nuclei count vs DMSO), 5 days (fraction); higher = more cells survive. The following applies: first compound 2.53 µM. An outline of the steps:
(§1)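 Dosing by pin tool came one day after lung cancer cell lines were seeded in 1536-well plates, using either one drug or a fixed anchor-drug dose plus five library-drug doses (not always all listed) in √10 steps. After 5 days, nuclei were counted on 4× images. Relative viability is treated-well nuclei count divided by vehicle-well nuclei count, and values are medians of duplicate plates.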
`Nc1cccc2c1CN(C1CCC(=O)NC1=O)C2=O` (configuration not stated) [Lenalidomide] + O=C(CCCCCCC(=O)Nc1ccccc1)NO [Vorinostat] (partner 1 µM) registered a relative viability of 0.954.

Turning to `Nc1cccc2c1CN(C1CCC(=O)NC1=O)C2=O` (configuration not stated) [Lenalidomide] + COc1cccc2cc(-c3nc([C@H]4CC[C@H](C(=O)O)CC4)n4ncnc(N)c34)[nH]c12 [OSI-027] (partner 0.5 µM), the relative viability was determined as 0.696.

The assay is the same for the next values; noted with them: first compound 8 µM.
On to `Nc1cccc2c1CN(C1CCC(=O)NC1=O)C2=O` (configuration not stated) [Lenalidomide] + Nc1ncn([C@H]2C[C@H](O)[C@@H](CO)O2)c(=O)n1 [Decitabine] (partner 2 µM), for which the relative viability came to 0.331.

On to `Nc1cccc2c1CN(C1CCC(=O)NC1=O)C2=O` (configuration not stated) [Lenalidomide] + N=C(N)NC(=N)NCCc1ccccc1 [Phenformin] (partner 250 µM), for which the relative viability was 0.196.

Take `Nc1cccc2c1CN(C1CCC(=O)NC1=O)C2=O` (configuration not stated) [Lenalidomide] + Nc1nc2[nH]cc(CCc3ccc(C(=O)N[C@@H](CCC(=O)O)C(=O)O)cc3)c2c(=O)[nH]1 [Pemetrexed] (partner 0.2 µM): the relative viability amounted to 0.396.

`Nc1cccc2c1CN(C1CCC(=O)NC1=O)C2=O` (configuration not stated) [Lenalidomide] + CC(=O)c1c(C)c2cnc(Nc3ccc(N4CCNCC4)cn3)nc2n(C2CCCC2)c1=O [Palbociclib] (partner 0.5 µM) registered a relative viability of 0.372.

Regarding `Nc1cccc2c1CN(C1CCC(=O)NC1=O)C2=O` (configuration not stated) [Lenalidomide] + O=C(CCCCCCC(=O)Nc1ccccc1)NO [Vorinostat] (partner 1 µM), the relative viability worked out at 0.636.

The compound `Nc1cccc2c1CN(C1CCC(=O)NC1=O)C2=O` (configuration not stated) [Lenalidomide] + COc1cccc2cc(-c3nc([C@H]4CC[C@H](C(=O)O)CC4)n4ncnc(N)c34)[nH]c12 [OSI-027] (partner 0.5 µM) had a relative viability of 0.702.

For the next assay, the system named is EPLC-272H. The assay is described as above. To be noted: first compound 0.253 µM. The gist of the method: as §1
Take `Nc1cccc2c1CN(C1CCC(=O)NC1=O)C2=O` (configuration not stated) [Lenalidomide] + Nc1ncn([C@H]2C[C@H](O)[C@@H](CO)O2)c(=O)n1 [Decitabine] (partner 2 µM): the relative viability is 0.382.

Compound `Nc1cccc2c1CN(C1CCC(=O)NC1=O)C2=O` (configuration not stated) [Lenalidomide] + N=C(N)NC(=N)NCCc1ccccc1 [Phenformin] (partner 250 µM) registered a relative viability of 0.282.

Turning to `Nc1cccc2c1CN(C1CCC(=O)NC1=O)C2=O` (configuration not stated) [Lenalidomide] + Nc1nc2[nH]cc(CCc3ccc(C(=O)N[C@@H](CCC(=O)O)C(=O)O)cc3)c2c(=O)[nH]1 [Pemetrexed] (partner 0.2 µM), the relative viability came out at 0.328.

Take `Nc1cccc2c1CN(C1CCC(=O)NC1=O)C2=O` (configuration not stated) [Lenalidomide] + CC(=O)c1c(C)c2cnc(Nc3ccc(N4CCNCC4)cn3)nc2n(C2CCCC2)c1=O [Palbociclib] (partner 0.5 µM): the relative viability worked out at 0.34.

Compound `Nc1cccc2c1CN(C1CCC(=O)NC1=O)C2=O` (configuration not stated) [Lenalidomide] + O=C(CCCCCCC(=O)Nc1ccccc1)NO [Vorinostat] (partner 1 µM) returned a relative viability of 0.481.

Regarding `Nc1cccc2c1CN(C1CCC(=O)NC1=O)C2=O` (configuration not stated) [Lenalidomide] + COc1cccc2cc(-c3nc([C@H]4CC[C@H](C(=O)O)CC4)n4ncnc(N)c34)[nH]c12 [OSI-027] (partner 0.5 µM), the relative viability stood at 0.297.

The same assay, now with this note: first compound 0.8 µM.
`Nc1cccc2c1CN(C1CCC(=O)NC1=O)C2=O` (configuration not stated) [Lenalidomide] + Nc1ncn([C@H]2C[C@H](O)[C@@H](CO)O2)c(=O)n1 [Decitabine] (partner 2 µM): the relative viability was 0.381.

In the case of `Nc1cccc2c1CN(C1CCC(=O)NC1=O)C2=O` (configuration not stated) [Lenalidomide] + N=C(N)NC(=N)NCCc1ccccc1 [Phenformin] (partner 250 µM), the relative viability worked out at 0.341.

In the case of `Nc1cccc2c1CN(C1CCC(=O)NC1=O)C2=O` (configuration not stated) [Lenalidomide] + CC(=O)c1c(C)c2cnc(Nc3ccc(N4CCNCC4)cn3)nc2n(C2CCCC2)c1=O [Palbociclib] (partner 0.5 µM), the relative viability was found to be 0.383.

Regarding `Nc1cccc2c1CN(C1CCC(=O)NC1=O)C2=O` (configuration not stated) [Lenalidomide] + COc1cccc2cc(-c3nc([C@H]4CC[C@H](C(=O)O)CC4)n4ncnc(N)c34)[nH]c12 [OSI-027] (partner 0.5 µM), the relative viability turned out to be 0.339.

The same assay, now with this note: first compound 2.53 µM.
Take `Nc1cccc2c1CN(C1CCC(=O)NC1=O)C2=O` (configuration not stated) [Lenalidomide] + Nc1ncn([C@H]2C[C@H](O)[C@@H](CO)O2)c(=O)n1 [Decitabine] (partner 2 µM): the relative viability is 0.413.

Compound `Nc1cccc2c1CN(C1CCC(=O)NC1=O)C2=O` (configuration not stated) [Lenalidomide] + N=C(N)NC(=N)NCCc1ccccc1 [Phenformin] (partner 250 µM) registered a relative viability of 0.318.

Compound `Nc1cccc2c1CN(C1CCC(=O)NC1=O)C2=O` (configuration not stated) [Lenalidomide] + Nc1nc2[nH]cc(CCc3ccc(C(=O)N[C@@H](CCC(=O)O)C(=O)O)cc3)c2c(=O)[nH]1 [Pemetrexed] (partner 0.2 µM) registered a relative viability of 0.356.

Regarding `Nc1cccc2c1CN(C1CCC(=O)NC1=O)C2=O` (configuration not stated) [Lenalidomide] + CC(=O)c1c(C)c2cnc(Nc3ccc(N4CCNCC4)cn3)nc2n(C2CCCC2)c1=O [Palbociclib] (partner 0.5 µM), the relative viability is 0.333.

On to `Nc1cccc2c1CN(C1CCC(=O)NC1=O)C2=O` (configuration not stated) [Lenalidomide] + O=C(CCCCCCC(=O)Nc1ccccc1)NO [Vorinostat] (partner 1 µM), for which the relative viability turned out to be 0.296.

On to `Nc1cccc2c1CN(C1CCC(=O)NC1=O)C2=O` (configuration not stated) [Lenalidomide] + COc1cccc2cc(-c3nc([C@H]4CC[C@H](C(=O)O)CC4)n4ncnc(N)c34)[nH]c12 [OSI-027] (partner 0.5 µM), for which the relative viability stood at 0.292.

Still in this assay, the particulars now being: first compound 8 µM.
Compound `Nc1cccc2c1CN(C1CCC(=O)NC1=O)C2=O` (configuration not stated) [Lenalidomide] + Nc1ncn([C@H]2C[C@H](O)[C@@H](CO)O2)c(=O)n1 [Decitabine] (partner 2 µM) returned a relative viability of 0.32.

Turning to `Nc1cccc2c1CN(C1CCC(=O)NC1=O)C2=O` (configuration not stated) [Lenalidomide] + N=C(N)NC(=N)NCCc1ccccc1 [Phenformin] (partner 250 µM), the relative viability worked out at 0.224.

In turn, `Nc1cccc2c1CN(C1CCC(=O)NC1=O)C2=O` (configuration not stated) [Lenalidomide] + Nc1nc2[nH]cc(CCc3ccc(C(=O)N[C@@H](CCC(=O)O)C(=O)O)cc3)c2c(=O)[nH]1 [Pemetrexed] (partner 0.2 µM) came in with a relative viability of 0.359.

The compound `Nc1cccc2c1CN(C1CCC(=O)NC1=O)C2=O` (configuration not stated) [Lenalidomide] + CC(=O)c1c(C)c2cnc(Nc3ccc(N4CCNCC4)cn3)nc2n(C2CCCC2)c1=O [Palbociclib] (partner 0.5 µM) displayed a relative viability of 0.322.

`Nc1cccc2c1CN(C1CCC(=O)NC1=O)C2=O` (configuration not stated) [Lenalidomide] + O=C(CCCCCCC(=O)Nc1ccccc1)NO [Vorinostat] (partner 1 µM) displayed a relative viability of 0.451.

`Nc1cccc2c1CN(C1CCC(=O)NC1=O)C2=O` (configuration not stated) [Lenalidomide] + COc1cccc2cc(-c3nc([C@H]4CC[C@H](C(=O)O)CC4)n4ncnc(N)c34)[nH]c12 [OSI-027] (partner 0.5 µM) returned a relative viability of 0.283.

For a further assay, the system named is HCC-366. Described as above. The following applies: first compound 0.253 µM. An outline of the steps: as §1
In turn, `Nc1cccc2c1CN(C1CCC(=O)NC1=O)C2=O` (configuration not stated) [Lenalidomide] + Nc1ncn([C@H]2C[C@H](O)[C@@H](CO)O2)c(=O)n1 [Decitabine] (partner 2 µM) registered a relative viability of 0.337.

Regarding `Nc1cccc2c1CN(C1CCC(=O)NC1=O)C2=O` (configuration not stated) [Lenalidomide] + N=C(N)NC(=N)NCCc1ccccc1 [Phenformin] (partner 250 µM), the relative viability was determined as 0.564.
